According to US20110092488A1, “Quninoline Methanol Compounds for the Treatment and Prevention of Parasitic Infections” (priority 2005, published 2011):
Values after ≈ are worked out from the molar mass of the structure shown. “Also recorded” adds a separate entry of the source.

Assays:
[1] = test system: FVO strain of P. falciparum; assay: Efficacy in P. falciparum-challenged Aotus monkeys; type: in vivo, Plasmodium falciparum in Aotus lemurinus lemurinus; conditions: 10 mg/kg/day x7 oral; groups of two; Cure = parasite free 90 days; R = average day of recrudescence; Failure = rescued with mefloquine
Description: (§1) The P. berghei-mouse efficacy data were obtained from the WRAIR chemical information system (subcutaneous testing) or from recent tests conducted at AFRIMS, Thailand or at the University of Miami using a modified version of the Thompson test. Groups of five mice were inoculated through i.p. injection on day 0 (usually with 1×106 P. berghei-parasitized erythrocytes). The drugs in Table 1 were administered either subcutaneously or orally for three days (usually on days 3-5) at doses of 1.25-160 mg/kg in two to four fold increments. Cure was defined as survival until day 60 (subcutaneous dosing) or day 31 post-treatment (oral dosing). […] The minimum effective dose was the lowest dose level that cured at least one of five mice. The Aotus studies were performed according to Obaldia; Detection of Klebsiella pnuumoniae antibodies in Aotus l. lemurinus (Panamanian owl monkey) using an enzyme linked immunosorbent assay (ELIA) test; Lab Anim (25)133-141 (1991) and Obaldia et al., WR 238605, chloroquine, and their combinations as blood schizonticides against a chloroquine-resistant strain of Plasmodium vivax in Aotus monkeys; Am. J. Trop. Med. Hyg. (56)508-510 (1997), which are incorporated by reference, herein. Groups of two Aotus lemurinus 6 lemurinus of the karyotype VIII or IX (27) male and female monkeys with weights ranging from 742-970 g were inoculated with 5×10^6 parasites of either the FVO strain of P. falciparum or the AMRU1 strain of P. vivax. Both of these strains are chloroquine resistant. […] Monkeys were examined and thick Giemsa-stained blood smears were prepared and enumerated daily (17) to monitor the course of infection. […] In some instances, a high dose of the test drug was used to retreat monkeys instead of the mefloquine rescue. Monkeys are considered cured if they are parasite free 90 days post treatment. […] Plasma samples were taken from the monkeys in some studies for quantification of metabolites. Additional blood samples were taken as appropriate for complete blood counts and serum chemistry. Research was conducted in compliance with the Animal Welfare Act and other federal statutes and regulations relating to animals and experiments involving animals and adheres to principles stated in the Guide for the Care and Use of Laboratory Animals, NRC Publication, 1996 edition (34).

[2] = test system: P. falciparum D6, W2 and TM91C235; assay: Isobologram analysis azithromycin and WR074086, P. falciparum D6, W2 and TM91C235; type: cell-based, Plasmodium falciparum; conditions: WR074086 combined with azithromycin; in many instances; FIGS. 4-6
Description: (§2) The combined effects of azithromycin (as represented by compound 196 on the horizontal axes of FIG. 4 through 6) and WR074086 (as represented by compound 14885 on vertical axes of FIGS. 4 through 6) against three strains of P. falciparum were investigated using isobologram analysis. First, the IC50s of each compound were determined as described above.
(§3) Next, IC50s were determined with different fractional starting concentrations of each compound. For example in line C of FIG. 5, the starting concentration of azithromycin was 12500 ng/ml whereas the starting concentration of WR074086 was 5 ng/ml. Each of these starting concentrations is half of that used when each compound was tested alone. […] In the data tables, lines D-H represent other combinations of starting concentrations of each compound.
(§4) For each pair of starting concentrations for each drug, fractional inhibitory concentrations were determined using the following formula: FIC=IC50 in combination/IC50 alone.
The FICs for the eight tests are plotted as indicated in FIG. 4 through FIG. 6 for each of three P. falciparum strains. Graphs of this type are called isobolograms and additivity is represented by an overall FIC SUM of 1, as represented by the straight line joining the two axes. A potentiative effect is represented by a concave curve below the straight line, since IC50s in combination are lower than expected. […]

[3] = Aotus, 10 mg/kg/day oral x7
Description: as §1

P. falciparum TM91C235 = assay: In vitro antimalarial activity against P. falciparum TM91C235; type: cell-based, Plasmodium falciparum
Description: (§5) The in vitro activities of AAQMs against P. falciparum strains W2, D6, TM91C235 and TM90C2A were evaluated using the method of Desjardins et al. as modified by Milhous et al. W2 is chloroquine resistant and mefloquine sensitive, D6 is chloroquine sensitive but naturally less susceptible to mefloquine, TM91C235 is resistant to mefloquine, chloroquine and pyrimethamine as is TM90C2A, however this latter parasite is a two pfmdr1 copy strain. We routinely run mefloquine in this screen as a control to ensure assay validity.

P. falciparum D6 [4] = assay: In vitro antimalarial activity against P. falciparum D6; type: cell-based, Plasmodium falciparum; conditions: FIG. 5
Description: as §5, §2

P. falciparum D6 [5] = assay: Isobologram analysis azithromycin and WR074086, P. falciparum D6; type: cell-based, Plasmodium falciparum
Description: as §2, §3, §4
The FICs for the eight tests are plotted as indicated in FIG. 4 through FIG. 6 for each of three P. falciparum strains. Graphs of this type are called isobolograms and additivity is represented by an overall FIC SUM of 1, as represented by the straight line joining the two axes. A potentiative effect is represented by a concave curve below the straight line, since IC50s in combination are lower than expected. Antagonism is represented by a convex curve above the straight line, since IC50s in combination are higher than expected.

[6] = test system: Plasmodium falciparum malaria; conditions: P. falciparum malaria, South East Asia; WR030090: field trials; cited from earlier work

With `CCCCN(CCCC)CC(O)c1cc(-c2ccc(F)cc2)nc2c(Cl)cc(Cl)cc12` (stereo not shown) [WR074086] the “Outcome in Aotus” value [1] was “cleared parasitemias, but recrudescence was subsequently observed; also recorded: Clear (R25)”, the “Minimum fractional inhibitory concentration (FIC)” value [2] was under 0.5 and the “Mean peak concentration” value [3] was 129 ng/mL. The “Plasma conc on day 1 (ng/ml) 2 h” value ([3]; day 1, 2 h) was 179 ng/mL, the “Plasma conc on day 1 (ng/ml) 24 h” value ([3]; day 1, 24 h) was 4.0 ng/mL and the “Plasma conc. on day 7 (ng/ml) 2 h” value ([3]; day 7, 2 h) was 78 ng/mL. The “Plasma conc. on day 7 (ng/ml) 24 h” value ([3]; day 7, 24 h) was 78 ng/mL, the “Activity against P. falciparum TM91C235 (IC50 in ng/ml)” value (P. falciparum TM91C235) was 3.4 ng/mL and the “TM91C235 IC90” value (P. falciparum TM91C235; Table 2) was 7.0 ng/mL. For the same molecule, the “IC50 against P. falciparum D6, compound alone” value (P. falciparum D6 [4]) was 1.8086 ng/mL (≈ 3.9 nM), the “FIC (IC50 in combination/IC50 alone)” value (P. falciparum D6 [5]; Line C FIG. 5: starting azithromycin 12500 ng/ml, WR074086 5 ng/ml) was 0.399 and the FIC sum (P. falciparum D6 [5]; azithromycin + WR074086, Line C FIG. 5) was 0.648.

In the case of `C=C[C@H]1C[N@@]2CC[C@H]1C[C@H]2[C@H](O)c1ccnc2ccc(OC)cc12` [quinine], the Cure rate [6] is listed as 26-50%.
